Results as given in the supplement of paper PMC11208160.

Test: recombinant UMI read abundance after kanamycin selection (control-corrected) (log10(CPM+1)); higher = more efficient recombination; extreme values may be limits of the assay; sequences stand for … in AGTGCAGAGAAAATCGGCCAGTTTTCTCTGCCTGCAGTCCGCATGCCGTGGGACCCCTTGGGTTCTAACCTGTTGCCTAGATTTATGCAGCGGACTGCCTTTCTCCCAAAGTGATAAACCGG…AGGTTGGTTTCACT; site = the 11-nt donor
Procedure, shortened: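 Values, expressed as log10(CPM+1), derive from recombinant UMI counts converted to CPM, averaged across replicates and scaled by control-derived factors. Plating was with IPTG (0.07 mM) plus kanamycin or unselected, two replicates each. The screen pooled donor and donor-binding-loop pairs for the IS621 bridge recombinase in Escherichia coli.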
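Further: IS621 bridge recombinase in Escherichia coli cells against a fixed T5 target plasmid.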

Sequence	recombinant UMI read abundance (log10)
CAATTCCCATGGACCGGTTTTCCCGGTAATCCGTATTTGCT (site CAATTCACTAG)	0
CAATTCCCATGGACCGGTTTTCCCGGTAATCCGTATTTGCT (site CAATTCCCTAA)	0.188
CAATTCCCATGGACCGGTTTTCCCGGTAATCCGTATTTGCT (site CAATTCCCTAC)	0.184
CAATTCCCATGGACCGGTTTTCCCGGTAATCCGTATTTGCT (site CAATTCCCTAG)	0.879
CAATTCCCATGGACCGGTTTTCCCGGTAATCCGTATTTGCT (site CAATTCCCTAT)	1.61
CAATTCCCATGGACCGGTTTTCCCGGTAATCCGTATTTGCT (site CAATTCCCTCG)	0.178
CAATTCCCATGGACCGGTTTTCCCGGTAATCCGTATTTGCT (site CAATTCCCTGG)	0
CAATTCCCATGGACCGGTTTTCCCGGTAATCCGTATTTGCT (site CAATTCCCTTG)	0.615
CAATTCCCATGGACCGGTTTTCCCGGTAATCCGTATTTGCT (site CAATTCGCTAG)	0.00609
CAATTCCCATGGACCGGTTTTCCCGGTAATCCGTATTTGCT (site CAATTCTCTAG)	2.13
CAATTCCCATGGACCGGTTTTCCCGGTAATCCGTATTTGCT (site CAATTGCCTAG)	0
CAATTCCCATGGACCGGTTTTCCCGGTAATCCGTATTTGCT (site CAATTTCCTAG)	0
CAATTCCCATGGACCGGTTTTCCCGGTAATCCGTATTTGCT (site CACTTCCCTAG)	0.171
CAATTCCCATGGACCGGTTTTCCCGGTAATCCGTATTTGCT (site CAGTTCCCTAG)	0
CAATTCCCATGGACCGGTTTTCCCGGTAATCCGTATTTGCT (site CATTTCCCTAG)	0
CAATTCCCATGGACCGGTTTTCCCGGTAATCCGTATTTGCT (site CCATTCCCTAG)	1.17
CAATTCCCATGGACCGGTTTTCCCGGTAATCCGTATTTGCT (site CGATTCCCTAG)	0
CAATTCCCATGGACCGGTTTTCCCGGTAATCCGTATTTGCT (site CTATTCCCTAG)	0
CAATTCCCATGGACCGGTTTTCCCGGTAATCCGTATTTGCT (site GAATTCCCTAG)	0

Sequence	recombinant UMI read abundance (log10)
CAATTCCCATGGACCGGTTTTCCCGGTAATCCGTATTTGCT (site TAATTCCCTAG)	0.428
CAATTCGCATGGACCGGTTTTCCCGGTAATCCGTATTTGCT (site CAATTCACTAG)	1.08
CAATTCGCATGGACCGGTTTTCCCGGTAATCCGTATTTGCT (site CAATTCCCTAG)	0
CAATTCGCATGGACCGGTTTTCCCGGTAATCCGTATTTGCT (site CAATTCGCTAG)	0.564
CAATTCGCATGGACCGGTTTTCCCGGTAATCCGTATTTGCT (site CAATTCTCTAG)	0
CAATTCTCATGGACCGGTTTTCCCGGTAATCCGTATTTGAA (site CAATACTCTTT)	0.00453
CAATTCTCATGGACCGGTTTTCCCGGTAATCCGTATTTGAA (site CAATCCTCTTT)	0.327
CAATTCTCATGGACCGGTTTTCCCGGTAATCCGTATTTGAA (site CAATGCTCTTT)	0.0109
CAATTCTCATGGACCGGTTTTCCCGGTAATCCGTATTTGAA (site CAATTCTCTTT)	2.5
CACAACGCATGGACCGGTTTTCCCGGTAATCCGTATTTGCA (site CACAACGCTTG)	2.49
CACACCCCATGGACCGGTTTTCCCGGTAATCCGTATTTGCC (site CACACCCCTGG)	1.91
CACACCTCATGGACCGGTTTTCCCGGTAATCCGTATTTGCC (site CACACCTCTGG)	2.87
CACACCTCATGGACCGGTTTTCCCGGTAATCCGTATTTGCC (site CACCCCTCTGG)	1.27
CACACCTCATGGACCGGTTTTCCCGGTAATCCGTATTTGCC (site CACGCCTCTGG)	0
CACACCTCATGGACCGGTTTTCCCGGTAATCCGTATTTGCC (site CACTCCTCTGG)	1.97
CACAGATCATGGACCGGTTTTCCCGGTAATCCGTATTTGCT (site CACAGATCTAG)	2.32
CACAGCGCATGGACCGGTTTTCCCGGTAATCCGTATTTGTT (site CACAGCGCTAA)	1.99
CACAGGTCATGGACCGGTTTTCCCGGTAATCCGTATTTGAT (site CACAGGTCTAT)	2.14
CACATGACATGGACCGGTTTTCCCGGTAATCCGTATTTGGA (site CACATGACTTC)	1.1

Sequence	recombinant UMI read abundance (log10)
CACATGTCATGGACCGGTTTTCCCGGTAATCCGTATTTGCA (site CACATGTCTTG)	2.4
CACATTTCATGGACCGGTTTTCCCGGTAATCCGTATTTGAA (site CACATTTCTTT)	0
CACCACACATGGACCGGTTTTCCCGGTAATCCGTATTTGTA (site CACCACACTTA)	2.13
CACCACACATGGACCGGTTTTCCCGGTAATCCGTATTTGTA (site CCCCACACTTA)	0.591
CACCACACATGGACCGGTTTTCCCGGTAATCCGTATTTGTA (site CGCCACACTTA)	0.29
CACCACACATGGACCGGTTTTCCCGGTAATCCGTATTTGTA (site CTCCACACTTA)	0.179
CACCCGACATGGACCGGTTTTCCCGGTAATCCGTATTTGTA (site CACCCGACTTA)	1.32
CACCCGTCATGGACCGGTTTTCCCGGTAATCCGTATTTGTT (site CACCCGTCTAA)	2.2
CACCGATCATGGACCGGTTTTCCCGGTAATCCGTATTTGCC (site CACCGATCTGG)	2.44
CACCTTACATGGACCGGTTTTCCCGGTAATCCGTATTTGCC (site CACCTTACTGG)	1.46
CACGACACATGGACCGGTTTTCCCGGTAATCCGTATTTGTG (site CACGACACTCA)	1.41
CACGATTCATGGACCGGTTTTCCCGGTAATCCGTATTTGCC (site CACGATTCTGG)	2.11
CACGCAGCATGGACCGGTTTTCCCGGTAATCCGTATTTGCG (site CACGCAGCTCG)	1.32
CACGCGCCATGGACCGGTTTTCCCGGTAATCCGTATTTGTG (site CAAGCGCCTCA)	0.00364
CACGCGCCATGGACCGGTTTTCCCGGTAATCCGTATTTGTG (site CACGCGCCTCA)	0.00403
CACGCGCCATGGACCGGTTTTCCCGGTAATCCGTATTTGTG (site CAGGCGCCTCA)	0.056
CACGCGCCATGGACCGGTTTTCCCGGTAATCCGTATTTGTG (site CATGCGCCTCA)	0
CACGCGTCATGGACCGGTTTTCCCGGTAATCCGTATTTGGG (site CACGCGTCTCC)	1.04
CACGGCCCATGGACCGGTTTTCCCGGTAATCCGTATTTGTT (site AACGGCCCTAA)	0.0126
